Results on three compounds are retold here after US6613756B2 (Wisconsin Alumni Research Foundation, priority 2000, dated 2003).

For data set [1], the system named is collagenase. Conditions: cited from earlier work.
In data set [2] the test system is naive DA rats. As to the kind of experiment: Minocycline treatment of naive, non-immunized animals. The class given is in vivo, rat. The text has this:
In the high-dose MOG immunization paradigm rats were separated into two groups: EAE^pbs-phosphate-buffered saline (PBS)-treated rats (n=5) from day 1 post-immunization and EAE^tr-minocycline-treated rats (n=6) from day 1 post-immunization.
(§1) Matched unimmunized, naive groups were also included: N^pbs-PBS-treated animals (n=10), N^tr1-minocycline-treated from experimental day 10 (n=10), N^tr2-minocycline-treated from experimental day 13 (n=5), N^tr3 minocycline-treated from experimental day 13, with twice daily injections during the first two days followed by single injection throughout the remaining treatment period (n=5).

Data set [3] concerns DA rats with MOG-induced EAE. The data set is described as follows: Low-dose MOG (10 μg rMOG/CFA) immunization paradigm of relapsing remitting EAE. The class given is in vivo, rat. The settings on record: for % Of Dorsal Column Demyelinated / % Of Mortality / Mean Cumulative Score / % Of Incidence: 10 μg rMOG/CFA. How it is done: Experiments were performed on 6-8 week old female DA rats obtained from Harlan-Sprague Dawley, Indianapolis, Ind. or Harlan-Winkelmann, Germany. During the observation period, rats were housed in a light- and temperature-controlled environment and were permitted free access to food and water. The recombinant extracellular immunogobulin domain of MOG was expressed in E. coli and purified as described previously (Raine, C. S., et al., Ann. Neurol. 46:144-160, 1999).
Rats were immunized sub-cutaneously (s.c.) at the base of the tail with either 10 μg MOG in complete Freund's adjuvant (CFA) or 100 μg MOG emulsified in incomplete Freund's adjuvant (IFA) (Difco, Detroit, Mich.) in a total volume of 100 μl. Animals were weighed and examined daily for clinical signs of EAE that was scored on the following scale: 0.5, partial loss of tail tone; 1, complete tail atony; 2, hind limb weakness; 3, hind limb paralysis; 4, moribund; 5, dead. […]
as §1
Animals were deeply anesthetized with pentobarbital and perfused transcardially with Ringer's followed by 4% paraformaldehyde. The brain and spinal cord were removed and prepared for paraffin and epon embedding or cryo-protected in 30% sucrose. Paraffin sections were used to assess the degree of inflammation (hematoxylin and eosin) and one-micron semithin sections were used to estimate the demyelination in the spinal cord (toluidine blue). Areas with inflammatory infiltrates or demyelinating lesions in the dorsal funiculus of spinal cord were scored using a CCD72 camera to collect digital images that were analyzed with the Microcomputer Imaging Device (MCID) software from Imaging Research Inc. (St. Catherines, Ontario). Measurements for cell infiltrates and demyelination were expressed as percent of the total white matter area of the dorsal funiculus. To determine the profile of inflammatory infiltrates within lesions 10 μm cryostat sections of thoracic-lumbar spinal cord were immunolabelled for MHC II (Harlan Sera-Lab), CR3, CD45 (Serotec), GFAP (Dako), CD3 (PharMingen) and MMP-2 (Oncogne Research Products) protein expression. Primary antibodies were detected using a biotinylated secondary antibodies and the avidin: biotin enzyme complex technique (Vector Laboratories). Areas with immunolabelling-defined inflammatory infiltrates were scored using a semi-quantitative scale: 0-no inflammatory infiltrates or lesions, 1-25%, 2-50%, 3-75%, and 4-100% of the dorsal funiculus.
Statistical analysis of clinical scores was performed by averaging them over all times of the treatment and subtracting the first 11 days after immunization when clinical score in all groups was 0. Statistical significance was established using a repeated measures analysis where clinical score between treatments was compared from day 12 to 42 building in an auto-correlation of the error term. ANOVA and Student's t-test were used to establish the difference between experimental groups in all other examined parameters. Statistically significant differences were presented as: * for P<0.05, ** for P<0.01, and *** for P<0.001.

In data set [4] the test system is MOG-specific T-cell response. As to the kind of experiment: MOG-specific T-cell response of draining lymph node cells from treated rats. The class given is cell-based, rat. Conditions: high-dose MOG; minocycline day 1 to 10; 10 d.p.i. How it is done: Draining lymph nodes and spleens were removed 10 days post-immunization (d.p.i.) and proliferation assays performed in flat-bottomed 96-well tissue culture plates in a total volume of 200 μl using either 5×10^5 lymph node or spleen cells (Raine, C. S., et al., supra, 1999). Antigen specific proliferation was assessed by the incorporation of ^3H-thymidine (10 μCi/well) during the final 18 hours of a 72 hour culture period using a Packard Matrix 96 Direct Beta counter.

Data set [5] deals with DA rats with MOG-induced EAE. The data set is described as follows: High-dose MOG (100 μg rMOG/IFA) immunization paradigm of EAE. The class given is in vivo, rat.
Experimental: Statistical analysis of clinical scores was performed by averaging them over all times of the treatment and subtracting the first 11 days after immunization when clinical score in all groups was 0. Statistical significance was established using a repeated measures analysis where clinical score between treatments was compared from day 12 to 42 building in an auto-correlation of the error term. ANOVA and Student's t-test were used to establish the difference between experimental groups in all other examined parameters. […]
The mark [6] stands for this setting: minocycline from day 10 (EAEtr1).
The mark [7] stands for this setting: minocycline from day of onset (EAEtr2).
The mark [8] stands for this setting: minocycline from day of onset, double-dose (EAEtr3).

Where a name gives a salt, the structure may show the parent alone.

As for `CC1(O)c2cccc(O)c2C(=O)C2=C(O)C3(O)C(=O)C(C(N)=O)=C(O)CC3CC21` (stereo not drawn) [CMT-1, 4-dedimethylamino tetracycline], the anti-collagenase activity result in data set [1] is listed as “persistent anti-collagenase activity”.
On to `NC(=O)C1=C(O)C[C@@H]2C[C@@H]3Cc4cccc(O)c4C(=O)C3=C(O)[C@]2(O)C1=O` [CMT-3, 6-demethyl 6-deoxy 4-dedimethylamino tetracycline], for which the anti-collagenase activity entry in data set [1] is “persistent anti-collagenase activity”.
For `CN(C)c1ccc(O)c2c1C[C@H]1C[C@H]3[C@H](N(C)C)C(O)=C(C(N)=O)C(=O)[C@@]3(O)C(O)=C1C2=O` [Minocycline, Minocycline hydrochloride], the adverse effects result in data set [2] was “not found to induce any adverse effects”. The “% Of Dorsal Column Demyelinated” value came out at 5.94% in data set [3] (setting [6]), 0.12% in data set [3] (setting [7]), 0.04% in data set [3] (setting [8]) and 6.25% in data set [5] (minocycline from day 1). In addition, the “% Of Mortality” value in data set [3] (setting [6]) was determined as 0%; in data set [3] (setting [7]), 0%; in data set [3] (setting [8]) it was 0%; in data set [5] (minocycline from day 1, terminated day 20), 0%. In addition, the “Mean Cumulative Score” value came to 7.43 in data set [3] (setting [6]); 26.25 in data set [3] (setting [7]); 10.12 in data set [3] (setting [8]); 5.5 in data set [5] (minocycline from day 1, sum of daily scores of all animals / number of animals). Further, the “% Of Incidence” value amounted to 40% in data set [3] (minocycline from day 10 (EAEtr1), 42 days); 100% in data set [3] (setting [7]); 100% in data set [3] (minocycline from day of onset, double-dose first two days (EAEtr3)); 80% in data set [5] (minocycline 45 mg/kg i.p. daily from day 1, terminated day 20). The “maximal clinical disease grade reached” value in data set [3] (twice daily for first two days from onset, then once daily (EAEtr3)) is not above 1. The “antigen specific proliferative response of draining lymph node cells” value in data set [4] was “no significant effect”.
